The values that follow come from patent US7514432B2, “Compounds and methods of treating cell proliferative diseases, retinopathies and arthritis” (Exonhit Therapeutics SA, priority 2003, dated 2009).

One data set has as its system HMEC1. The data set can be described thus: Cell viability assay (MTT), HMEC1. Format: cell-based, Human. The conditions noted are these: MTT, 10% FBS, 6-day treatment, 1% DMSO. In outline:
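HMEC1 cells seeded 24 h before dosing, then exposed to 0–200 μM compound (11 concentrations) in medium with 10% FBS and 1% DMSO final, refed every 3 days. Viability read on day 6 by MTT (0.5 mg/ml, 1–5 h at 37 °C), absorbance 550 nm; IC50 from dose-response curves, mean±SEM of 1–8 experiments.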

The next data set has as its system MDA-MB-231. Kind of data set: Cell viability assay (MTT), MDA-MB-231. The format is cell-based, human. Conditions: Homo sapiens, 1% DMSO. The method, boiled down:
(§1)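 Cells seeded 24 h before treatment with 0–200 μM compound (11 concentrations, 1% DMSO final) in 10% or 0.5% FBS medium; exposure 16 h, 3 or 6 days, fed every 3 days in 6-day runs. MTT 0.5 mg/ml read at 550 nm; IC50 from dose-response curves, mean±SEM.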

In another data set the test system is NIH 3T3. Kind of data set: Cell viability assay (MTT), NIH 3T3. The format is cell-based, mouse. Conditions: Mus musculus, 10% FBS, 1% DMSO. In outline:
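MTT viability in medium with 10% FBS and 1% DMSO, with cells seeded 24 h before treatment at 0–200 μM (11 concentrations). There were two formats: 6-day (3–15 10^3 cells, re-fed every 3 days) or 16-hour (5–10 10^4 cells). Absorbance was read at 550 nm, giving IC50 (50% cell death) as mean±SEM.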

A further data set concerns HCT116 cells. The data set can be described thus: Anchorage-independent cell growth assay in soft agar. The format is cell-based, human. The conditions noted are these: 7 days; for IC50: Homo sapiens, HCT-116, 168 h, HCT116, 0.3% agar. As to the method:
FIG. 3: Anchorage-independent growth assay in soft agar. 5 10^3 cells were seeded in 24-well plates in 0.3% agar-containing medium supplemented with the designated amount of compounds. After 7 days of incubation at 37° C., pictures of each well were taken and analyzed using the ImageJ image analysis software. In particular, clone size and number were calculated. The data were analyzed using GraphPad Prism, and IC50 was calculated. […] (A) Typical dose-response curves obtained for clone size and number. (B) Bar graph displaying the IC50s calculated for each compound.
In order to evaluate the effect of one compound on the capacity of tumour cells to grow without anchorage, HCT116 cells were seeded in soft agar. In contrast to microplate assays which average the drug's effects over an entire cell population, clonogenic assays offer the possibility of distinguishing cytotoxic agents (i.e., decreased colony number) from cytostatic agents (i.e., decreased colony size without decreased colony number; Murphy M. J. et al., 1996). Briefly, 5 10^3 HCT116 cells were resuspended in 300 μl of complete medium containing 0.3% soft-agar (Difco) and different concentrations of compound (8 concentrations ranging from 0 to 30 μM). Cells were then poured on a solidified layer of medium containing 0.5% of soft agar plus the compound at the same concentration as in the upper layer. Cells were incubated for 7 days at 37° C. before pictures of each well were taken using a phase contrast microscope (Nikon) and a digital camera (Nikon Coolpix 990). Pictures were subsequently analyzed using free image analysis software from the NIH (ImageJ) allowing determination of clone size and number.
Data were analyzed using the GraphPad Prism software, and IC50 (dose leading to a 50% decrease of clone size or number) was calculated from dose-response curves.

The next data set concerns HCT116. Kind of data set: Cell viability assay (MTT), HCT116. The format is cell-based, human. The conditions noted are these: 1% DMSO. In outline:
as §1

The subject of another data set is MCF7. Kind of data set: Cell viability assay (MTT), MCF7. The conditions noted are these: Homo sapiens, MCF7, 72 h, 10% FBS, 3-day treatment, 1% DMSO. Format: cell-based. The procedure: Table 12: 6-day cell viability assay (MTT) in the presence of 10% Fetal Bovine Serum and 1% DMSO, in HMEC1, HCT116, MDA-MB-231, MCF7 and NIH3T3 cell lines. 3 10^3 to 15 10^3 cells were seeded in 48-well plates in growth medium containing 10% FBS, with or without various concentrations of test compounds. Cell cultures were fed every 3 days with the appropriate media. Cell viability was determined on day 6. Data were analyzed and IC50s were calculated from dose-response curves using GraphPad Prism. Results summarized in the tables are mean±SEM of 1 to 8 independent experiments.
(§2) Table 14: 3-day cell viability assay (MTT) in the presence of 10% Fetal Bovine Serum and 1% DMSO, in DLD1, HCT116, MDA-MB-231, MCF7 and HeLa cells. 7.5 10^3 to 1.5 10^4 cells were seeded in 48-well plates in growth medium containing 10% FBS, with or without various concentrations of test compounds. Data were analyzed and IC50s were calculated from dose-response curves using GraphPad Prism. Results summarized in the tables are mean±SEM of 1 to 7 independent experiments.
(§3) In order to determine a compound's effect on cell viability, microculture tetrazolium assays (MTT) were performed as described by Carmichael et al. (1996) with modifications. Four human tumoral cell lines, namely HCT116 colon adenocarcinoma, H460 lung carcinoma, MCF-7 and MDA-MB-231 breast carcinoma cell lines, DLD1 colorectal adenocarcinoma, HeLa adenocarcinoma, HepG2 hepatocellular carcinoma. 3 immortalized but non tumorigenic cell lines, namely NIH3T3 mouse fibroblasts (American Type Culture Collection) and primary hepatocytes (Biopredic international), cultured according to their recommendations together with Human Microvasculature Endothelial Cell line HMEC1 (National Center for Infectious Diseases). Briefly, cells were seeded in 48-well plates 24 hours before drug addition. Cells were treated with 0 to 200 μM (11 concentrations) of compound solubilized in DMSO, adjusting the final concentration of DMSO to 1% in the well. 16 hours, and three or six days after treatment, 0.5 mg/ml MTT (Sigma) was added to the medium and cells were incubated for 1-5 hours at 37° C. before solubilization of formazan crystals in 100% DMSO. Absorbance was measured using a spectrophotometer at a wavelength of 550 nm. Data was analyzed using the GraphPad Prism software (GraphPad Software, Inc.), and IC50 (dose leading to 50% cell death) was calculated from the dose-response curves.

The test system of a further data set is DLD1. The data set can be described thus: Cell viability assay (MTT), DLD1. Format: cell-based. The conditions noted are these: Homo sapiens, DLD-1, 72 h, 10% FBS, 3-day treatment, 1% DMSO. The procedure:
as §2, §3

A further data set has as its system HeLa. The data set can be described thus: Cell viability assay (MTT), HeLa. The format is cell-based. The conditions noted are these: Homo sapiens, 72 h, 10% FBS, 3-day treatment, 1% DMSO. As to the method: as §2, §3
The subject of another data set is HepG2. The data set can be described thus: Cell viability assay (MTT), HepG2. The format is cell-based. Conditions: Homo sapiens, 10% FBS, 16-hours treatment, 1% DMSO. As to the method: (§4) Table 15: 16-hour cell viability assay (MTT) in the presence of 10% Fetal Bovine Serum and 1% DMSO, in HCT116, MDA-MB-231, NIH3T3, HepG2 and primary hepatocytes. 5 10^4 to 10 10^4 cells were seeded in 48-well plates in growth medium containing 10% FBS, with or without various concentrations of test compounds. Data were analyzed and IC50s were calculated from dose-reponse curves using GraphPad Prism. Results summarized in the tables are mean±SEM of 1 to 2 independent experiments.
as §3

Another data set has as its system Primary Hepatocytes. Kind of data set: Cell viability assay (MTT), primary hepatocytes. The format is cell-based. The conditions noted are these: Hepatocyte, 10% FBS, 16-hours treatment, 1% DMSO. The procedure:
as §4, §3

The subject of data set [1] is Salmonella typhimurium TA 98 and TA 100 strains. The data set can be described thus: Screening Ames test. Conditions: with and without S9 mix; 10 to 5000 μg per plate. An excerpt: The objective of this study was to evaluate the potential of the test items to induce reverse mutation in Salmonella Typhimurium (TA 98 and TA 100 strains). The bacterial reverse mutation test is able to identify substances that cause point mutations, by substitution, addition or deletion of one or a few DNA base-pairs. Mutagenic substances can induce reversion in histidine deficient strains which are then able to grow and form colonies in a histidine-limited medium, while non-reverted cannot. This test is performed in the absence and presence of a rat liver metabolising system (S9 mix). Three known mutagens are used to check sensitivity of test system: sodium azide, 2-nitrofluorene and 2-anthramine.
The dose levels per plate were of 10 to 5000 μg. A preliminary toxicity test was performed followed by the mutagenecity test per se.
(In general: The Ames test uses bacterial strains that need an amino acid and regain growth without it when mutated back.)

The mark [2] stands for this setting: MDA-MB-231, 144 h, 10% FBS, 6-day treatment, read-out: IC50 μM, MDA-MB-231.
The mark [3] stands for this setting: Homo sapiens, HCT-116, 144 h, 0.5% FBS, 6-day treatment.
[4] abbreviates: Homo sapiens, HCT-116, 144 h, 10% FBS, 6-day treatment.
The mark [5] stands for this setting: MDA-MB-231, 144 h, 0.5% FBS, 6-day treatment, read-out: IC50 (μM), MDA-MB-231.

Structures are written as SMILES. Like-named read-outs stand apart in the source and are kept apart here. A value given as a limit tells only on which side of the number the result lay.

The term IC50 denotes the midpoint of a concentration-inhibition curve.

As for `O=c1cc(COC2CCCCO2)occ1OCCCCCSc1ccnc2cc(C(F)(F)F)ccc12` (stereo not shown) [EHT 9376, 2-(Tetrahydro-pyran-2-yloxymethyl)-5-[5-(7-trifluoromethyl-quinolin-4-ylsulfanyl)-pentyloxy]-4H-pyran-4-one], the IC50 with HMEC1 (Homo sapiens, HMEC-1, 144 h) is less than 10 µM; with HMEC1, 8.2 µM; in the data set on MDA-MB-231 (setting [2]) it was 11.5 µM; in the data set with NIH 3T3 (NIH3T3, 144 h, 6-day treatment), 8.1 µM; with HCT116 cells it was 5.4 ± 1.2 µM.
As to `NC(=O)c1nnn(Cc2cc(Cl)c(C(=O)c3ccc(Cl)cc3)c(Cl)c2)c1N` [CAI, carboxyamidotriazole, reference compound], the IC50 in the data set with HMEC1 (Homo sapiens, HMEC-1, 144 h) was 28.4 µM; with HCT116 (Homo sapiens, HCT-116, 16 h, 10% FBS, 16-hours treatment), 44.1 µM; in the data set on HCT116 (setting [3]), 0.6 µM; with HCT116 (setting [4]) it was 1 µM; in the data set on MDA-MB-231 (MDA-MB-231, 16 h, 10% FBS, 16-hours treatment, read-out: IC50 μM, MDA-MB-231) it was greater than 50 µM; in the data set with MDA-MB-231 (setting [5]), 0.4 µM. Besides, the IC50 in the data set on MDA-MB-231 (setting [2]) worked out at 1.3 µM; in the data set with NIH 3T3 (NIH3T3, 16 h, 16-hours treatment) it was 95.9 µM; in the data set with NIH 3T3 (NIH3T3, 144 h, 6-day treatment), 5.8 µM; with HCT116 cells it was 5.8 ± 1 µM. In addition, the “mode of action: clone size versus clone number” value with HCT116 cells (soft agar) is “preferentially affect clone size as compared to clone number”.
Regarding `O=c1cc(CN2CCOCC2)occ1OCc1cccc(CSc2ccnc3cc(C(F)(F)F)ccc23)c1` [EHT 2725, 5-((3-((7-(Trifluoromethyl)quinolin-4-ylthio)methyl)phenyl)methoxy)-2-(morpholinomethyl)-4H-pyran-4-one], the IC50 was 28.1 µM in the data set on HMEC1 (Homo sapiens, HMEC-1, 144 h); 2.7 µM with HCT116 (10% FBS, 6-day treatment); 9.9 µM with HCT116 (Homo sapiens, HCT-116, 72 h, 10% FBS, 3-day treatment); 5.4 µM in the data set with HCT116 (setting [3]); less than 4 µM in the data set on HCT116 (setting [4]); 19.5 µM with MDA-MB-231 (MDA-MB-231, 72 h, 10% FBS, 3-day treatment, read-out: IC50 μM, MDA-MB-231). The IC50 was determined as 6.4 µM in the data set with MDA-MB-231 (setting [5]); 9.3 µM in the data set on MDA-MB-231 (setting [2]); 7.3 µM in the data set on MCF7; 24.8 µM with NIH 3T3 (NIH3T3, 144 h, 6-day treatment); 12.2 µM in the data set with DLD1; 20.9 µM with HeLa. Further, the IC50 in the data set on HepG2 was 45.2 µM; with Primary Hepatocytes, greater than 50 µM. Also, in data set [1], the mutagenic activity entry is reported as “did not show any mutagenic activity”.
